Reference: publication PMC11091072, “Targeting bacterial nickel transport with aspergillomarasmine A suppresses virulence-associated Ni-dependent enzymes” (Nature Communications, 2024)
Where “and” joins values, the source holds several entries; their conditions need not be identical. Equal values may be shown once. Read-outs that look alike come from different tables or passages of the source.

How the values were obtained:
K. pneumoniae [1] = format: cell-based, Klebsiella pneumoniae; conditions: 200 μM, 24 h exposure
K. pneumoniae [2] = format: cell-based, Klebsiella pneumoniae
NikA [3] = molecular target: T1, NikA (Klebsiella pneumoniae, UniProt A6TFA3); format: cell-based; conditions: 250 μM
[4] = test system: cellular Ni and Zn content of K. pneumoniae; assay: Cellular metal analysis by ICP-MS (60Ni, 66Zn); format: cell-based, Klebsiella pneumoniae; conditions: for effect on intracellular Ni^2+ levels / effect on intracellular Zn^2+ levels: 200 μM, ICP-MS; for ICP-MS cellular Ni / ICP-MS cellular Zn: K. pneumoniae treated with 200 μM
Experimental: The cellular Zn^2+ and Ni^2+ content of K. pneumoniae was carried out according to the method described by Maunders et al.[66] with some modifications. An overnight culture of K. pneumoniae was diluted 1/200 in LB medium (5 mL) and was either untreated or treated with 0.2 mM AMA or Zn-AMA. The cells were grown for 16 h at 37 °C, harvested by centrifugation, and washed twice with PBS containing 5 mM EDTA and twice with ultra-pure water. The cell pellet was subsequently digested in 0.25 mL 65% HNO3 at 80 °C for 30 minutes in borosilicate glass tubes using a water bath. The samples were diluted to 2% HNO3 and filtered through a 0.45 μm syringe filter. ^60Ni and ^66Zn were quantified using a Thermo iCAP Q ICP-MS.

HEK293 cells = assay: HEK293 cytotoxicity assay (Cell Titer Glo 2.0); conditions: for cytotoxicity toward HEK293: up to 512 μg/mL (~1.4 mM)
AMA affinity for Zn2+ = format: binding; conditions: PAR-based competition assay, authors' reply to reviewer; read-out: Kd for Zn (typical drift)
Hyd-3 = assay: [NiFe] hydrogenase zymography; format: cell-based, Escherichia coli BW25113; conditions: 150 µM, E. coli, 100% H2
Experimental: As described for whole-cell hydrogenase assays, E. coli BW25113 cultures (2 mL) in eight-well cell culture plates were grown under anaerobic conditions. The cells were harvested by centrifugation, resuspended in PBS, and lysed by sonication. Cell debris was removed by centrifugation (21,000 × g, 5 min), and Triton X-100 was added to a final concentration of 1%.
[NiFe] hydrogenase zymograms were
performed using E. coli grown in LB-glucose supplemented with 0.5 µM NiCl2 for 24h at 37 °C under anaerobic conditions. The E. coli
Triton X-100 (5% v/v) solubilized membranes were
mg/mL benzyl viologen and 1 mg/mL tetrazolium chloride under 100% H2 gas.

NikA [5] = molecular target: T1, NikA; format: binding
NikA [6] = format: binding, Klebsiella pneumoniae; conditions: 100 μM
K. pneumoniae biofilm = assay: Polystyrene microtiter biofilm assay (crystal violet); format: cell-based, Klebsiella pneumoniae
Experimental: Biofilm assays to assess the effect of Zn-AMA were adapted from a previously described method. Overnight cultures of K. pneumoniae or S. aureus USA300 were diluted in sterile saline (NaCl, 0.9% w/v) to an OD600 of 0.1 and diluted 1/200 in either M9-Cas, or artificial urine. Two-fold dilutions of Zn-AMA were added to the cells in a 96-well round-bottom microtiter plate, and the cells were grown at 37 °C for 18 hours in a static incubator. […] The biofilms were washed three times with deionized water, air-dried, and stained with 0.1% crystal violet for 15 min. Excess crystal violet was removed, the plates were washed with deionized water three times, and they were air-dried for 1 hour. […] Experiments were performed in four replicates, and absorbance measurements were performed in a BioTek Synergy H1 plate reader.

[7] = Chelex-treated nitrogen-limited medium

T1 sequence (A6TFA3 entry or part of it): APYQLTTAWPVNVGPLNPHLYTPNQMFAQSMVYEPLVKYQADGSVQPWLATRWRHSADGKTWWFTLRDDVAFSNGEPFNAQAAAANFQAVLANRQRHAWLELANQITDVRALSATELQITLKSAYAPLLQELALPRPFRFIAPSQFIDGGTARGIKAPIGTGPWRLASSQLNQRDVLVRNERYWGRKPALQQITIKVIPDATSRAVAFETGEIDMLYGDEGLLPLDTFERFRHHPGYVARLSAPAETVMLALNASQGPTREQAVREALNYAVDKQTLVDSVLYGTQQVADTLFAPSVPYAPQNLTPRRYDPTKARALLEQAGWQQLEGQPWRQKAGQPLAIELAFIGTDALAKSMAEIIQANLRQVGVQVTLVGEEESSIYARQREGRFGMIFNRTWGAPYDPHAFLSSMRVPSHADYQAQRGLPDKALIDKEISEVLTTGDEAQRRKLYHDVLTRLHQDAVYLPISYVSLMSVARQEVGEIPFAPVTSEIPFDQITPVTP

In the case of `N[C@@H](CN[C@@H](CN[C@@H](CC(=O)O)C(=O)O)C(=O)O)C(=O)O` [AMA, aspergillomarasmine A], the “bacterial viability (spot dilutions)” value (K. pneumoniae [1]) is reported as “do not affect bacterial viability”, the “Growth of K. pneumoniae with urea as a sole nitrogen source (OD600)” value (K. pneumoniae [2]) is reported as 1.19 and the “Growth curve (culture density)” value (K. pneumoniae [2]; 15.15 h, 50 μM) is reported as 0.165 and 0.162. For the same compound, the “Growth curve (culture density)” value (K. pneumoniae [2]; 16.15 h, 50 μM) was 0.186 and 0.183, the “Growth curve (culture density)” value (K. pneumoniae [2]; 17.15 h, 50 μM) was 0.218 and 0.214 and the “growth with urea as sole nitrogen source” value (K. pneumoniae [2]; [7]) was “not viable”. For the same compound, the “NikA thermal stability in cells (CETSA)” value (NikA [3]) was “barely detectable at 60 °C”, the “effect on intracellular Ni^2+ levels” value [4] was “reduced intracellular Ni^2+ levels” and the “effect on intracellular Zn^2+ levels” value [4] was “without affecting Zn^2+ levels”. For the same compound, the “ICP-MS cellular Ni” value [4] was 2.92 µM and 2.63 µM, the “ICP-MS cellular Zn” value [4] was 0.75 µM and 0.88 µM and the “cytotoxicity toward HEK293” value (HEK293 cells; 48 h) was “no significant cytotoxicity”. The “IC50 (HEK293 viability)” value (HEK293 cells; 48 h, highest tested 512 µg/mL (MG-132 62.5 µg/mL), Zn and Ni values of low confidence) was “Does no t fit to the mo del”, the “HEK 293T cytotoxicity assay raw signal” value (HEK293 cells; AMA 0.5 μg/mL) was 625667 and 666020 and 709951 and the “HEK 293T cytotoxicity assay raw signal” value (HEK293 cells; AMA 1 μg/mL) was 642619 and 585959 and 657816. For the same compound, the “HEK 293T cytotoxicity assay raw signal” value (HEK293 cells; AMA 2 μg/mL) was 663671 and 698910 and 700863, the “HEK 293T cytotoxicity assay raw signal” value (HEK293 cells; AMA 4 μg/mL) was 595054 and 606045 and 670753 and the “HEK 293T cytotoxicity assay raw signal” value (HEK293 cells; AMA 8 μg/mL) was 579865 and 576275 and 764893. The “HEK 293T cytotoxicity assay raw signal” value (HEK293 cells; AMA 16 μg/mL) was 628738 and 611425 and 704710, the “HEK 293T cytotoxicity assay raw signal” value (HEK293 cells; AMA 32 μg/mL) was 627377 and 612979 and 683402 and the “HEK 293T cytotoxicity assay raw signal” value (HEK293 cells; AMA 64 μg/mL) was 591894 and 576108 and 744283. The “HEK 293T cytotoxicity assay raw signal” value (HEK293 cells; AMA 128 μg/mL) was 558480 and 565965 and 608380, the “HEK 293T cytotoxicity assay raw signal” value (HEK293 cells; AMA 256 μg/mL) was 567074 and 538238 and 648309 and the “HEK 293T cytotoxicity assay raw signal” value (HEK293 cells; AMA 512 μg/mL) was 571681 and 577586 and 600345. The Kd (AMA affinity for Zn2+) was 0.0001 to 0.0002 µM.
With `N[C@@H](CN[C@@H](CN[C@@H](CC(=O)O)C(=O)O)C(=O)O)C(=O)O.[Zn+2]` [Zn-AMA] the “bacterial viability (spot dilutions)” value (K. pneumoniae [1]) was “do not affect bacterial viability”, the “Growth curve (culture density)” value (K. pneumoniae [2]) was 0.101 and 0.102 and 0.103 and 0.104 and 0.105 and 0.107 and 0.106 and 0.108 and the “Growth curve (culture density)” value (K. pneumoniae [2]; 15.15 h, 50 μM) was 0.107 and 0.104. For the same compound, the “Growth curve (culture density)” value (K. pneumoniae [2]; 16.15 h, 50 μM) was 0.107 and 0.103, the “Growth curve (culture density)” value (K. pneumoniae [2]; 17.15 h, 50 μM) was 0.107 and 0.102 and the “growth with urea as sole nitrogen source” value (K. pneumoniae [2]; [7]) was “did not”. The “growth with urea as sole nitrogen source” value (K. pneumoniae [2]; medium supplemented with 0.25 μM NiCl) was “inhibited the growth of K. pneumoniae”, the “Hyd-3 activity by zymography” value (Hyd-3) was “Suppression of Hyd-3 activity” and the “fold greater KD (weaker affinity) relative to Ni-(L-His)2” value (NikA [5]) was 14 fold. The “n (stoichiometry, ITC)” value (NikA [5]; 37 °C, pH 7.5) was 0.78, the “∆G” value (NikA [5]; 37 °C, pH 7.5) was -7.3 kcal/mol and the “∆H” value (NikA [5]; 37 °C, pH 7.5) was -11.6 kcal/mol. The “−T∆S” value (NikA [5]; 37 °C, pH 7.5) was 4.3 kcal/mol, the Kd (NikA [5]; read-out: KD for NikA (ITC), 25 mM Tris-HCl, 150 mM NaCl, 0.1% Triton X-100, pH 7.5, 37 °C) was 6.8 ± 0.4 µM and the “effect on intracellular Ni^2+ levels” value [4] was “reduced intracellular Ni^2+ levels”. For the same compound, the “effect on intracellular Zn^2+ levels” value [4] was “without affecting Zn^2+ levels”, the “ICP-MS cellular Ni” value [4] was 2.15 µM and 2.37 µM and the “ICP-MS cellular Zn” value [4] was 0.81 µM and 0.97 µM. For the same compound, the “effect on stability of recombinant NikA” value (NikA [6]) was “increase NikA’s stability”, the “cytotoxicity toward HEK293” value (HEK293 cells; 48 h) was “no significant cytotoxicity” and the IC50 (HEK293 cells; Homo sapiens, HEK293, 48 h, read-out: IC50 (HEK293 viability)) was over 512 µg/mL. The “HEK 293T cytotoxicity assay raw signal” value (HEK293 cells; Zn-AMA 0.5 μg/mL) was 787289 and 688554 and 688484, the “HEK 293T cytotoxicity assay raw signal” value (HEK293 cells; Zn-AMA 1 μg/mL) was 778862 and 676746 and 680280 and the “HEK 293T cytotoxicity assay raw signal” value (HEK293 cells; Zn-AMA 2 μg/mL) was 730695 and 661495 and 777158. The “HEK 293T cytotoxicity assay raw signal” value (HEK293 cells; Zn-AMA 4 μg/mL) was 783723 and 676080 and 794996, the “HEK 293T cytotoxicity assay raw signal” value (HEK293 cells; Zn-AMA 8 μg/mL) was 742661 and 700936 and 674120 and the “HEK 293T cytotoxicity assay raw signal” value (HEK293 cells; Zn-AMA 16 μg/mL) was 815769 and 690170 and 672316. The “HEK 293T cytotoxicity assay raw signal” value (HEK293 cells; Zn-AMA 32 μg/mL) was 682089 and 773769 and 699603, the “HEK 293T cytotoxicity assay raw signal” value (HEK293 cells; Zn-AMA 64 μg/mL) was 773018 and 718789 and 808685 and the “HEK 293T cytotoxicity assay raw signal” value (HEK293 cells; Zn-AMA 128 μg/mL) was 636555 and 716494 and 658016. The “HEK 293T cytotoxicity assay raw signal” value (HEK293 cells; Zn-AMA 256 μg/mL) was 744022 and 626132 and 622056, the “HEK 293T cytotoxicity assay raw signal” value (HEK293 cells; Zn-AMA 512 μg/mL) was 618617 and 604431 and 563165 and the “Biofilm (A595), crystal violet” value (K. pneumoniae biofilm; 1.56 μM, artificial urine) was 0.659 and 0.666 and 0.436 and 0.533. For the same compound, the “Planktonic (A595)” value (K. pneumoniae biofilm; 1.56 μM, artificial urine) was 0.141 and 0.142 and 0.148 and 0.16, the “Biofilm (A595), crystal violet” value (K. pneumoniae biofilm; 3.12 μM, artificial urine) was 0.633 and 0.585 and 0.45 and 0.471 and the “Planktonic (A595)” value (K. pneumoniae biofilm; 3.12 μM, artificial urine) was 0.147 and 0.142 and 0.13 and 0.155. For the same compound, the “Planktonic (A595)” value (K. pneumoniae biofilm; 6.2 μM, artificial urine) was 0.194 and 0.11 and 0.126 and 0.129, the “Planktonic (A595)” value (K. pneumoniae biofilm; 12.5 μM, artificial urine) was 0.177 and 0.124 and 0.113 and 0.167 and the “Planktonic (A595)” value (K. pneumoniae biofilm; 25 μM, artificial urine) was 0.165 and 0.136 and 0.151 and 0.152. For the same compound, the “Planktonic (A595)” value (K. pneumoniae biofilm; 50 μM, artificial urine) was 0.165 and 0.152 and 0.157 and 0.154, the “Planktonic (A595)” value (K. pneumoniae biofilm; 100 μM, artificial urine) was 0.171 and 0.148 and 0.158 and 0.166 and the “Planktonic (A595)” value (K. pneumoniae biofilm; 200 μM, artificial urine) was 0.167 and 0.176 and 0.175 and 0.166. The “effect on biofilm production” value (K. pneumoniae biofilm; M9 minimal medium) was “biofilms were unperturbed” and the “effect on biofilm production” value (K. pneumoniae biofilm; artificial urine) was “completely suppress biofilm production”.
